Measurements published in paper PMC6261607, “Novel high–throughput myofibroblast assays identify agonists with therapeutic potential in pulmonary fibrosis that act via EP2 and EP4 receptors” (PLoS ONE, 2018).
Where two headings read alike, the source gives them in different places.

Assays:
[1] = tested on: normal human lung fibroblasts (NHLF); assay: Phenotypic high-content assay (HCA) of TGF–β1–induced fibroblast–to–myofibroblast differentiation; assay type: cell-based; conditions: for IC50: 5 ng/ml TGF–β1 for 48 h, compound added with TGF–β1, mean ± SD, read-out: HCA IC50; for inhibition at 10 µM: read-out: Effect HCA at 10 µM [% inhibition], 10 µM compound, 5 ng/ml TGF–β1, 48 h
Procedure, shortened: (§1)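 NHLF starved 24 h in serum-free basal medium with 0.1% BSA, then given compounds together with 5 ng/ml TGF-β1 for 48 h (0.6% DMSO). Methanol-fixed cells imaged for DAPI, α-SMA and FN; an SVM trained on ±TGF-β1 controls classified each cell, giving per-well % myofibroblast differentiation and nuclear counts.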

[2] = tested on: normal human lung fibroblasts (NHLF); assay: Nuclear count in the HCA, standard assay; assay type: cell-based; conditions: standard HCA, NHLF, 5 ng/ml TGF–β1, 48 h, read-out: Nuclear count IC50
Procedure, shortened: as §1

[3] = tested on: α–SMA protein in NHLF cells; assay: RapidFire MS/MS quantification of α–SMA (IPQA), standard assay; assay type: cell-based, human
Method: (§2) Cell culture medium was removed and cells were lysed on ice by adding 5 μl / well of pre–cooled protein extraction buffer containing 10 mM Tris–HCl (pH 8.0), 6 M urea and 2 M thiourea and shaking on ice on a plate shaker at 600 rpm for 30 min.
(§3) Cell lysate was transferred to a 96–well polypropylene–PCR–plate. 15 μl / well denaturation buffer (6 M urea, 50 mM ammonium bicarbonate) and 2 μl / well of 50 mM TCEP were added and samples were denatured for 1 h at 60°C using the Veriti 96–well Fast Thermal Cycler System (Applied Biosystem) with a heated lid. Plates were allowed to cool to RT. Subsequently, 2 μl of 100 mM iodoacetamide were added per well to derivatize cysteine residues. Plates were then sealed and vortexed for 2 min in the dark and incubated for 30 min at 37°C in a thermal cycler with a heated lid. 90 μl of 50 mM ammonium bicarbonate pH 7.8 were added, followed by the addition of 10 μl of trypsin at 0.02 μg / ml. Samples were trypsin–digested overnight at 37°C in a thermal cycler with heated lid. […] Samples were desalted under vacuum using an Oasis HLB 96–well (30 μm particle size, 5 mg sorbent / well) reverse phase cartridge according to the manufacturer’s instructions and eluted with 170 μl of 90% acetonitrile, 0.1% formic acid. Samples were dried down with a flow of nitrogen at 40°C, left to cool to RT and re–suspended in 40 μl 5% acetonitrile, 0.1% formic acid on a plate shaker set to 1400 rpm for 5 min. Plates were centrifuged at 4,000 rpm for 10 min and 2 times 12 μl / well of supernatant were transferred into separate 96–well plates (Greiner Bio–One), sealed and stored at 4°C until analyzed by MS / MS.
(§4) Surrogate tryptic peptides were chosen for detection of COL1 (COL1A1), α–SMA (ACTA) and tubulin (TBA1A1) and crude synthetic peptides were purchased from Thermo Fischer. After several rounds of optimization following standard workflows, […] (COL1 / COL1A1), […] (α–SMA / ACTA) and […] LC–MS / MS analysis was performed on a RapidFire™ RF360 system (Agilent Technologies) coupled to an API 5500 (ABSciex) with positive ion electrospray ionization. […] Detection was performed using multiple reaction monitoring (MRM) mode to monitor parent⟶product ion transitions (m / z). […] The source parameters were curtain gas (CUR) nitrogen: 20 psig; collision gas (CAD): 7 psig; ion source gas 1: 50.0 psig; ion source gas 2: 50.0 psig; ion spray voltage (IS): 5500 V; turbo heater temperature (TEM): 600°C; entrance potential (EP): 10V. Peak areas for COL1A1 and ACTA were normalized by dividing by TBA1A peak area.

[4] = tested on: COL1 protein in NHLF cells; assay: RapidFire MS/MS quantification of COL1 (IPQA), standard assay; assay type: cell-based, human
Method: as §2, §3, §4

[5] = Homo sapiens, Fibroblast, 48 h, NHLF
[6] = Homo sapiens, NHLF, 5 ng/ml TGF–β1, 48 h, representative experiment of supplementary figure, read-out: IC50 on α–SMA (curve of a single experiment)
[7] = Homo sapiens, NHLF, 5 ng/ml TGF–β1, lysed 48 h after TGF–β1, normalized to tubulin, mean ± SD, read-out: MS / MS α–SMA IC50
[8] = Homo sapiens, Col1, NHLF, 5 ng/ml TGF–β1, 48 h, representative experiment of supplementary figure, read-out: IC50 on COL1 (curve of a single experiment)
[9] = Homo sapiens, Col1, NHLF, 5 ng/ml TGF–β1, lysed 48 h after TGF–β1, normalized to tubulin, mean ± SD, read-out: MS / MS COL1 IC50
[10] = Homo sapiens, Col1, 48 h, NHLF, 5 ng/ml TGF–β1, lysed 48 h after TGF–β1, normalized to tubulin, mean ± SD, read-out: MS / MS COL1 IC50
[11] = NHLF, 5 ng/ml TGF–β1, lysed 48 h after TGF–β1, normalized to tubulin, mean ± SD, read-out: MS / MS COL1 IC50
[12] = Homo sapiens, Col1, 48 h, NHLF, 5 ng/ml TGF–β1, 48 h, representative experiment of supplementary figure, read-out: IC50 on COL1 (curve of a single experiment)

Row | Compound | IC50 [1, 5] | IC50 ([2]; Homo sapiens, Fibroblast, 48 h) | IC50 [3, 6] | IC50 [3, 7] | IC50 [4, 9] | IC50 [4, 10] | other results
1 | CC(C)(C)c1ccc(CN(Cc2cccc(OCC(=O)O)c2)S(=O)(=O)c2cccnc2)cc1 [Evatanepag] | 82 ± 110 nM | > 50000 nM | 5.5 nM | 26 ± 29 nM | 11 nM |  | IC50 [4, 8]: 11.4 nM
2 | O=C(CC1NCCCC1O)Cn1cnc2cc(Br)c(Cl)cc2c1=O (stereo not drawn) [Halofuginone] | 690 ± 320 nM | > 46000 nM | 24 nM | 27 ± 4 nM | 27 ± 1 nM |  | IC50 [4, 8]: 28 nM
3 | C[C@]12CC[C@H](O)C[C@H]1CC[C@@H]1[C@@H]2C[C@@H](O)[C@]2(C)[C@@H](C3=CC(=O)OC3)CC[C@]12O [Digoxigenin] | 220 nM | > 25000 nM |  | 38 ± 6 nM | 85 ± 8 nM |  | concentrations that reduced cell surface area (CellMask Orange stain) ([1]; HCA, NHLF): ≥ 1250 nM; inhibition at 10 µM ([1]; Homo sapiens, Fibroblast): 100%; IC50 [2]: 19000 nM
4 | COC(=O)c1ccc2c(c1)NC(=O)/C2=C(\Nc1ccc(N(C)C(=O)CN2CCN(C)CC2)cc1)c1ccccc1 [Nintedanib] | 760 ± 130 nM | 1400 nM |  | 500 ± 120 nM |  | 1600 nM | 
5 | Cc1cccc(-c2[nH]c(CNc3ccccc3F)nc2-c2ccc3ncnn3c2)n1 [EW–7197] | 80 ± 30 nM | > 25000 nM |  | 51 ± 17 nM |  | 111 ± 30 nM | IC50 ([1]; NHLF): 82 ± 30 nM; IC50 [4, 11]: 110 ± 30 nM
6 | TGF–β1: transforming growth factor–β1, stimulus of myofibroblast differentiation |  |  |  |  |  |  | EC50 of myofibroblast differentiation in HCA ([1]; NHLF, 48 h, mean ± SD (n = 7)): 0.02 ± 0.01 ng/mL; α-SMA / tubulin ratio ([3]; NHLF, 5 ng/mL TGF-β1): 0.51 ± 0.06; EC50 of α–SMA protein increase ([3]; NHLF, 48 hours, MS/MS (n = 8)): 0.07 ± 0.01 ng/mL; increase of α–SMA protein ([3]; NHLF, at 48 hours): about 3 fold; COL1 / tubulin ratio ([4]; NHLF, 5 ng/mL TGF-β1): 0.33 ± 0.07; EC50 of COL1 protein increase ([4]; NHLF, 48 hours, MS/MS (n = 8)): 0.05 ± 0.01 ng/mL; increase of COL1 protein ([4]; NHLF, at 48 hours): about 3 fold
7 | CCCCC[C@H](O)/C=C/[C@H]1[C@H](O)CC(=O)[C@@H]1CCCCCCC(=O)O [Alprostadil] | 9 nM | > 25000 nM | 0.6 nM | 1.9 ± 1.6 nM |  | 5 ± 1.4 nM | inhibition at 10 µM ([1]; Homo sapiens, Fibroblast): 97%; IC50 ([1]; NHLF): 8.6 ± 10 nM; IC50 [2]: > 50000 nM; effect on basal α–SMA expression ([3]; NHLF in the absence of TGF–β1): no effect; IC50 [4, 12]: 3.2 nM; effect on basal COL1 expression ([4]; NHLF in the absence of TGF–β1): no effect
8 | CCCCC[C@H](O)/C=C/[C@H]1[C@H](O)CC(=O)[C@@H]1C/C=C\CCCC(=O)O [PGE2, prostaglandin E2] |  | > 2500 nM | 0.3 nM | 1.2 ± 1.2 nM |  | 4.9 ± 4.4 nM | IC50 [4, 12]: 1.8 nM
9 | O=C1CC[C@H](/C=C/[C@@H](O)Cc2ccccc2)N1CCCCCCc1nn[nH]n1 [Merck–19a] |  |  |  |  |  |  | IC50 ([3]; NHLF, 5 ng/ml TGF–β1, lysed 48 h after TGF–β1, normalized to tubulin, mean ± SD, read-out: MS / MS α–SMA IC50): 108 ± 87 nM; IC50 [4, 11]: 17.7 ± 7 nM
